Source: patent US9927437B2, “Treating neurodegenerative disease” (THE BRIGHAM AND WOMEN'S HOSPITAL, INC., priority 2013, dated 2018)
“Also recorded” adds a separate entry of the source.

Columns and labels:
Type in all cases: cell-based, mouse
[1] = system: IRF-1; assay: IRF-1 translocation to the nucleus in astrocytes (western blot); conditions: primary astrocytes, PDMP 25 μM or LacCer 10 μM, LPS/IFNγ 45 min
[2] = system: ccl2 promoter; assay: ChIP of NF-κB and IRF-1 at the ccl2 promoter in primary astrocytes
From the text: (§1) FIGS. 4a-m. B4GALT6 regulates ccl2 transcriptional activity in astrocytes. (a) Murine ccl2 promoter. (b) Luciferase activity in 293T cells transfected with the ccl2 luciferase reporter plus one of the following constructs encoding IRF-1, p65 or an empty control vector (Empty). Results are relative to secreted alkaline phosphatase activity, presented as fold induction from empty vector. Data from three independent experiments, statistical analysis by Student's t-test. (c) ChIP analysis of the interaction of NF-κB, and IRF-1 with the ccl2 promoter in primary cultured astrocytes, pre-treated with PDMP and LacCer and activated with LPS/IFNγ (as in FIG. 3), 2 hours following LPS/IFNγ induction. (d-h) Recruitment of inflammatory monocytes (defined either as of CD11b^+ Ly6C^high or CD11b^+CD45^high cells) to the CNS of EAE NOD mice treated with PDMP or vehicle, as in (FIG. 1k), analyzed by flow cytometry and presented as cell frequency (e, g) and total cell numbers (f, h). Representative data of three independent experiments. […] (i) The frequency and number of CD11b^+ Ly6C^high monocytes as determined in the CNS 10 days after the i.c.v. injection of astrocytes-specific shRNA lentivirus as in (FIG. 3j). […] (j) monocytes were pre-treated for 1 h with PDMP, LacCer, both (LacCer+PDMP), or vehicle, and monocytes chemotaxis was measured using a transwell chamber system. […]

[3] = system: Ly6C^high monocytes; assay: Monocytes migration assay (transwell, CCL-2); conditions: 1 h pre-treatment, CCL-2 50 ng/ml, 3 h
From the text: as §1

[4] = system: Ly6C^high monocytes; assay: Response of Ly6C^high monocytes to LPS/IFNγ (nCounter); conditions: LPS/IFNγ 6 h

lactosylceramide [LacCer]
translocation of IRF-1 to the nucleus [1]: enhanced the translocation of IRF-1 to the nucleus
recruitment of NF-κB and IRF-1 to the ccl2 promoter, LacCer added to PDMP ([2]; LacCer + PDMP, LPS/IFNγ): abrogated
monocyte migration in a CCL-2 gradient [3]: did not affect; also recorded: no significance effect
monocyte response to LPS/IFNγ stimulation [4]: did not affect

CCCCCCCCCC(=O)N[C@H](CN1CCOCC1)[C@H](O)c1ccccc1 [PDMP, D-threo-1-phenyl-2-decanoylamino-3-morpholino-1-propanol]
translocation of IRF-1 to the nucleus [1]: interfered with this process
recruitment of NF-κB and IRF-1 to the ccl2 promoter ([2]; astrocytes activated with LPS/IFNγ, 2 hours): arrested
monocyte migration in a CCL-2 gradient [3]: did not affect; also recorded: no significance effect
monocyte response to LPS/IFNγ stimulation [4]: did not affect
